# From article PMC8587101, “Design and Synthesis of Novel Betulin Derivatives Containing Thio-/Semicarbazone Moieties as Apoptotic Inducers through Mitochindria-Related Pathways” (Molecules, 2021)
# “And” between values parts separate entries of the source, which are not always exact repeats. Equal entries are not always repeated. “Also recorded” adds a separate entry of the source. Where two headings read alike, the source gives them in different places.
# How the values were obtained:
# [1] = system: normal human gastric epithelial cells (GES-1); assay: MTT cytotoxicity assay, GES-1 normal cells; type: cell-based; settings: GES1, MTT, 48 h, normal cells, means ± SD of three experiments, “-” not active, read-out: IC50 (μM) GES-1
# [2] = system: human lung carcinoma cells (A549); assay: MTT cytotoxicity assay, A549; type: cell-based; settings: A549, MTT, 48 h, means ± SD of three experiments, read-out: IC50 (μM) A549
# MCF-7 cells [3] = assay: ROS level assay, H2DCFDA, flow cytometry; type: cell-based, human; settings: MCF-7, 12 μM, 24 h; control group 2.61%
# Experimental: In the past years, many studies reported that intracellular amounts of reactive oxygen species (ROS) play an important role in some kinds of biological processes in tumor cells. […] Therefore, we explored if ROS stimulated by compound 8f induced apoptosis in MCF-7 cells. Cells were treated with compound 8f by gradient concentration (0, 3, 6 and 12 μM) for 24 h and then using H2DCFDA staining analysis by flow cytometry.
# MCF-7 cells were cultured into 12-well plate at a concentration of 1 × 10^6 cells/well for 24 h of the RPMI-1640 medium with 10% FBS. Then, cells were co-cultured with compound 8f (0, 3, 6 and 12 µM) for 24 h. Then, the MCF-7 cells were stained with 5 µM H2DCFDA solution (400 µL/well) at room temperature in the dark for 30 min. The cells were harvested and washed with PBS twice according to the manufacturer’s instructions (Thermo Fisher Scientific, Waltham, MA, USA). The results were obtained by flow cytometry.
# MCF-7 cells [4] = assay: Mitochondrial membrane potential (MMP) assay, JC-1, flow cytometry; type: cell-based, human; settings: 24 h
# Experimental: Mitochondria dysfunction has been proven to be an important role in inducing apoptosis in tumor cells. The loss of mitochondrial membrane potential (MMP) has been considered to be an early manifestation of mitochondrial dysfunction in apoptotic process. Thus, we tried to explore the contribution of mitochondria in compound-8f-induced apoptosis in MCF-7 cells. JC-1 cationic dye is an ideal MMP-sensitive probe, which can measure the MMP lost by flow cytometry.
# MCF-7 cells were cultured into 12-well plates at a concentration of 1 × 10^6 cells/well of the RPMI-1640 medium. Then, cells were co-cultured with compound 8f (0, 3, 6 and 12 µM) for 24 h. After treatment, cells were stained with 3 µM cationic dye JC-1 at room temperature in the dark for 30 min according to the manufacturer’s instructions (BD Biosciences, San Jose, CA, USA). Finally, cells were harvested and washed with PBS twice, and then the results were recorded by flow cytometry analysis.
# [5] = system: human colorectal cells (HCT-116); assay: MTT cytotoxicity assay, HCT-116; type: cell-based; settings: HCT-116, MTT, 48 h, means ± SD of three experiments, read-out: IC50 (μM) HCT-116
# MCF-7 cells [6] = assay: Western blot of apoptosis-related proteins; type: cell-based, human; settings: MCF-7, 3, 6 and 12 µM, 24 h, GAPDH internal control
# Experimental: To further explore the molecular mechanism of compound-8f-induced apoptosis in MCF-7 cells, the expression levels of the related apoptotic proteins Bcl-2, Bax, P53, caspase-3, caspase-9, cleaved caspase-3, cleaved caspase-9 and cytochrome c under treatment of compound 8f were carried out. MCF-7 cells were co-cultured with compound 8f at the gradient concentrations of 3, 6 and 12 µM for 24 h, and the related apoptotic proteins expression levels were tested by means of Western blotting. The GAPDH expression level was used as an internal control group. […] Meanwhile, the cleavage forms of the caspase proteins were evaluated (Figure 10). Compound 8f could also activated the expression levels of both cleaved caspase-3 and cleaved caspase-9 in a dose-dependent manner.
# After treatment with compound 8f (0, 3, 6 and 12 µM), MCF-7 cells were harvested and lysed in RIPA buffer and boiled for 10 min at 100 °C. Equal amount of protein ([…]) were separated on a 10% SDS-PAGE gel and transferred to nitrocellulose membranes. The membranes were blocked with 5% BSA and probed with a 1:1000 dilution of primary antibody against Cl-caspase-3 (Cell Singaling Technology, Inc., Danvers, MA, USA), Cl-caspase-9 (Cell Singaling Technology Inc), P53 (Cell Singaling Technology, Inc; Danvers, MA, USA), Bcl-2 (Santa Cruz Biotechnology, Inc; Santa Cruz, CA, USA), Cytochrome c (Proteintech Group, Inc; Rosemont, IL, USA) and Bax (Proteintech Group, Inc; Rosemont, IL, USA). Then, the membranes were incubated with a 1:5000 dilution of horseradish peroxidase-conjugated secondary antibody for 2 h. Positive bands were visualized on a X-ray film using an enhanced chemiluminescence system (Kodak).
# MCF-7 cells [7] = assay: AO/EB staining, fluorescence microscope; type: cell-based, human; settings: MCF-7, 0, 3, 6 and 12 μM, 24 h
# Experimental: Firstly, the Acridine Orange/Ethidium Bromide (AO/EB) staining of MCF-7 cells treated with compound 8f was observed under a fluorescence microscope. A large number of normal cells in the control group were stained green and their nuclei were intact.
# The MCF-7 cells in the logarithmic growth phase were cultured into 6-well plates (5 × 10^4 cells/mL). The cells incubated for overnight at 37 °C in an atmosphere of 5% CO2. Then the MCF-7 cells were treated with compound 8f (0, 3, 6 and 12 μM) for 24 h. The cover slip with monolayer MCF-7 cells was inverted on the glass slide with 20 μL of AO/BE stain (100 μg/mL). The fluorescence intensity was read using a fluorescence microscope (Zeiss, Oberserve A1, Oberkochen, Germany).
# MCF-7 cells [8] = assay: Annexin V-FITC/PI apoptosis analysis by flow cytometry; type: cell-based, human; settings: 24 h, control 10.54%
# Experimental: In order to confirm whether tumor cell apoptosis was induced by compound 8f in tumor cells, the MCF-7 cells were stained in sequence with Annexin V-FITC (AV) and propidium iodide (PI). MCF-7 cells deal with compound 8f by gradient concentration (0, 3, 6 and 12 μM) for 24 h, and the rates of apoptotic cells were detected by flow cytometry.
# Apoptosis was determined by staining cells with an Annexin VFITC/PI detection kit (BD Biosciences, San Jose, CA, USA). Briefly, MCF-7 cells were seeded on six-well plates (6 × 10^4 cells/mL) and incubated with compound 8f (0, 3, 6 and 12 μM) for 24 h. Cells were washed twice with cold PBS and resuspended in 500 μL of 1 × binding buffer, and then 10 μL of Annexin V-FITC and 5 μL of PI were applied to stain the cells for 15 min at room temperature in the dark. The status of stained cells was analyzed using a flow cytometer (BD, FACSCalibur, San Jose, CA, USA).
# [9] = system: human breast carcinoma cells (MCF-7); assay: MTT cytotoxicity assay, MCF-7; type: cell-based; settings: for IC50: MTT, 48 h, means ± SD of three experiments, read-out: IC50 (μM) MCF-7
smiles,measurement,setting,value
"C=C(C)[C@@H]1CC[C@]2(/C=N/NC(=S)Nc3cccc(Cl)c3)CC[C@]3(C)[C@H](CC[C@@H]4[C@@]5(C)CC[C@H](O)C(C)(C)[C@@H]5CC[C@]43C)[C@@H]12 [Compound 8f, Lup-20(29)-ene-3β-ol-28-N-(3-chlorophenyl)thiosemicarbazide]",IC50,[1],215 ± 6.28 µM
same,IC50,[2],10.4 ± 0.74 µM
same,generation of ROS level,MCF-7 cells [3],75.22%
same,JC-1 fluorescence intensity (upper quadrant),"MCF-7 cells [4]; MCF-7, 3 μM",79.00%
same,JC-1 fluorescence intensity (upper quadrant),"MCF-7 cells [4]; MCF-7, 12 μM",47.06%
same,IC50,[5],24.7 ± 0.9 µM
same,expression level of Bax,MCF-7 cells [6],upregulation; also recorded: increased
same,expression level of Bcl-2,MCF-7 cells [6],downregulation; also recorded: suppressed
same,expression level of P53,MCF-7 cells [6],upregulation; also recorded: increased
same,expression level of caspase-3,MCF-7 cells [6],activation; also recorded: activated
same,expression level of caspase-9,MCF-7 cells [6],activation; also recorded: activated
same,expression level of cleaved caspase-3,MCF-7 cells [6],activation; also recorded: activated
same,expression level of cleaved caspase-9,MCF-7 cells [6],activation; also recorded: activated
same,expression level of cytochrome c (cyt-c),MCF-7 cells [6],upregulation; also recorded: increased
same,"AO/EB staining, cell morphology",MCF-7 cells [7],some cells showed apoptotic characteristics
same,percentage of apoptosis cells,"MCF-7 cells [8]; MCF-7, 3 μM",13.20%
same,percentage of apoptosis cells,"MCF-7 cells [8]; MCF-7, 12 μM",48.66%
same,IC50,"[9]; Homo sapiens, MCF7, 48 h",< 10 µM
same,fold more potent than betulin,"[9]; MCF-7, ratio of IC50 values",3.32 fold
same,IC50,[9],5.96 µM and 5.86 µM
